Consider 28 molecules from patent US20250186437A1, “CARBOLINE COMPOUNDS AND USE THEREOF” (PTC Therapeutics, Inc., priority 2021, published 2025).

The subject of this assay is MOLM-13 cells. Briefly: MOLM-13 Cell Proliferation Assay (indicator of DHODH inhibition). Type of assay: cell-based. The note with it: Homo sapiens, 72 Hours of culture, CellTiter-Glo, no uridine. The method, boiled down:
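Low-passage MOLM-13 cells (10^4/well) in RPMI 1640 + 10% FBS exposed to compound (0.5% DMSO final) for 72 h at 37 °C, 5% CO2. Viability read by CellTiter-Glo luminescence; growth reflects de novo pyrimidine synthesis dependent on DHODH.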

As to `Fc1c(Cl)ccc(C2c3[nH]c4ccc(Cl)cc4c3CCN2c2nccc(C(F)(F)F)n2)c1F` (stereo not shown) [Cpd 144, 6-chloro-1-(4-chloro-2,3-difluorophenyl)-2-[4-(trifluoromethyl)pyrimidin-2-yl]-2,3,4,9-tetrahydro-1H-pyrido[3,4-b]indole], the IC50 is 0.7 nM.

In turn, `CN1CCN(c2ncc([C@H]3c4[nH]c5ccc(Cl)cc5c4CCN3c3nc(C(F)F)nc(C(F)(F)F)n3)cn2)CC1` [Compound 508, (1S)-6-chloro-2-[4-(difluoromethyl)-6-(trifluoromethyl)-1,3,5-triazin-2-yl]-1-[2-(4-methylpiperazin-1-yl)pyrimidin-5-yl]-2,3,4,9-tetrahydro-1H-pyrido[3,4-b]indole] registered an IC50 of 0.8 nM.

Turning to `Cc1nc(C)nc(N2CCc3c([nH]c4c(N)cc(Cl)cc34)C2c2ccc(C)c(F)c2F)n1` (stereo not shown) [Compound 304, 6-chloro-1-(2,3-difluoro-4-methylphenyl)-2-(4,6-dimethyl-1,3,5-triazin-2-yl)-2,3,4,9-tetrahydro-1H-pyrido[3,4-b]indol-8-amine], 93.9 nM corresponded to half-maximal inhibition (IC50).

`Fc1cc2[nH]c3c(c2cc1Cl)CCN(c1ncc(Cl)cn1)C3c1ccc(C(F)(F)F)cc1` (stereo not shown) [Compound 80, 6-chloro-2-(5-chloropyrimidin-2-yl)-7-fluoro-1-[4-(trifluoromethyl)phenyl]-2,3,4,9-tetrahydro-1H-pyrido[3,4-b]indole]: 31 nM corresponded to half-maximal inhibition (IC50). This IC50 lies about 3-fold lower than the previous one.

With `Fc1ccc(C2c3[nH]c4ccc(Cl)cc4c3CCN2c2nccc(C(F)(F)F)n2)c(F)c1F` (stereo not shown) [Compound 263, 6-chloro-2-[4-(trifluoromethyl)pyrimidin-2-yl]-1-(2,3,4-trifluorophenyl)-2,3,4,9-tetrahydro-1H-pyrido[3,4-b]indole], half-maximal inhibition (IC50) required 2.5 nM.

The molecule `Cc1ccc([C@H]2c3[nH]c4ccc(-n5nccn5)cc4c3CCN2c2nc(C(F)(F)F)nc(C(F)(F)F)n2)c(F)c1F` [Compound 524, (1S)-2-[4,6-bis(trifluoromethyl)-1,3,5-triazin-2-yl]-1-(2,3-difluoro-4-methylphenyl)-6-(2H-1,2,3-triazol-2-yl)-2,3,4,9-tetrahydro-1H-pyrido[3,4-b]indole] displayed an IC50 of 0.3 nM.

In turn, `CN1CCN(c2ccc([C@H]3c4[nH]c5ccc(Cl)cc5c4CCN3c3nc(C(F)(F)F)cc(C(F)(F)F)n3)cn2)CC1` [Compound 481, (1S)-2-[4,6-bis(trifluoromethyl)pyrimidin-2-yl]-6-chloro-1-[6-(4-methylpiperazin-1-yl)pyridin-3-yl]-2,3,4,9-tetrahydro-1H-pyrido[3,4-b]indole] registered an IC50 of 0.6 nM. This IC50 lies about 2-fold higher than the previous one.

`CC(=O)c1ncc([C@H]2c3[nH]c4ccc(Cl)cc4c3CCN2c2nc(C(F)(F)F)nc(C(F)(F)F)n2)cn1` [Compound 533, 1-(5-{(1S)-2-[4,6-bis(trifluoromethyl)-1,3,5-triazin-2-yl]-6-chloro-2,3,4,9-tetrahydro-1H-pyrido[3,4-b]indol-1-yl}pyrimidin-2-yl)ethan-1-one]: the IC50 is 4.7 nM. This IC50 lies about 7.8-fold higher than the previous one.

On to `N#Cc1nc(N2CCc3c([nH]c4ccc(Cl)cc34)[C@@H]2c2ccc(N3CCOCC3)nc2)ncc1F` [Compound 400, 2-{(1S)-6-chloro-1-[6-(morpholin-4-yl)pyridin-3-yl]-1,3,4,9-tetrahydro-2H-pyrido[3,4-b]indol-2-yl}-5-fluoropyrimidine-4-carbonitrile], for which the IC50 was determined as 2.3 nM.

In turn, `C[C@@H]1CN(c2ncc([C@H]3c4[nH]c5ccc(Cl)cc5c4CCN3c3nc(C(F)(F)F)cc(C(F)(F)F)n3)cn2)CCN1` [Compound 511, (1S)-2-[4,6-bis(trifluoromethyl)pyrimidin-2-yl]-6-chloro-1-{2-[(3R)-3-methylpiperazin-1-yl]pyrimidin-5-yl}-2,3,4,9-tetrahydro-1H-pyrido[3,4-b]indole] gave an IC50 of 3.8 nM. Compared with the last molecule, the IC50 is about 1.7-fold higher.

`Cc1ccc(C2c3[nH]c4cc(F)c(Cl)cc4c3CCN2c2nc(C)c(F)c(C)n2)c(F)c1F` (stereo not shown) [Compound 143, 6-chloro-1-(2,3-difluoro-4-methylphenyl)-7-fluoro-2-(5-fluoro-4,6-dimethylpyrimidin-2-yl)-2,3,4,9-tetrahydro-1H-pyrido[3,4-b]indole] gave an IC50 of 1.2 nM.

The molecule `Cc1nc(N2CCc3c([nH]c4ccc(Cl)cc34)[C@@H]2c2ccc(N3CCOCC3)nc2)nc(C#N)c1F` [Compound 424, 2-{(1S)-6-chloro-1-[6-(morpholin-4-yl)pyridin-3-yl]-1,3,4,9-tetrahydro-2H-pyrido[3,4-b]indol-2-yl}-5-fluoro-6-methylpyrimidine-4-carbonitrile] showed an IC50 of 2 nM.

Molecule `Cc1ccc([C@@H]2c3[nH]c4ccc(Cl)cc4c3CCN2c2nccc(C#N)n2)c(F)c1F` [Compound 176, 2-[(1R)-6-chloro-1-(2,3-difluoro-4-methylphenyl)-1,3,4,9-tetrahydro-2H-pyrido[3,4-b]indol-2-yl]pyrimidine-4-carbonitrile] gave an IC50 of 58.1 nM. This IC50 is about 29-fold higher than that of the molecule before.

As for `N#Cc1ccc(C2c3[nH]c4cc(F)c(Cl)cc4c3CCN2c2ncc(Cl)cn2)cc1` (stereo not shown) [Compound 59, 4-[6-chloro-2-(5-chloropyrimidin-2-yl)-7-fluoro-2,3,4,9-tetrahydro-1H-pyrido[3,4-b]indol-1-yl]benzonitrile], the IC50 was 38.7 nM.

`N#Cc1cc(C#N)nc(N2CCc3c([nH]c4cc(F)c(Cl)cc34)C2c2cccc(F)c2F)n1` (stereo not shown) [Compound 227, 2-[6-chloro-1-(2,3-difluorophenyl)-7-fluoro-1,3,4,9-tetrahydro-2H-pyrido[3,4-b]indol-2-yl]pyrimidine-4,6-dicarbonitrile] returned an IC50 of 16.4 nM.

Molecule `Cc1nc(C)nc(N2CCc3c([nH]c4ccc(Cl)cc34)C2c2ccc(Cl)cc2F)n1` (stereo not shown) [Compound 468, 6-chloro-1-(4-chloro-2-fluorophenyl)-2-(4,6-dimethyl-1,3,5-triazin-2-yl)-2,3,4,9-tetrahydro-1H-pyrido[3,4-b]indole] registered an IC50 of 5.2 nM. Compared with the last molecule, the IC50 is about 3.2-fold lower.

As to `Cc1ccc([C@H]2c3[nH]c4ccc(Cl)cc4c3CCN2c2nc(C(F)(F)F)nc(C(F)(F)F)n2)cc1` [Compound 386, (1S)-2-[4,6-bis(trifluoromethyl)-1,3,5-triazin-2-yl]-6-chloro-1-(4-methylphenyl)-2,3,4,9-tetrahydro-1H-pyrido[3,4-b]indole], it took 0.3 nM to reach half-maximal inhibition (IC50).

In turn, `FC(F)(F)c1nc(N2CCOCC2)nc(N2CCc3c([nH]c4ccc(Cl)cc34)[C@@H]2c2ccc(N3CCOCC3)nc2)n1` [Compound 446, (1S)-6-chloro-1-[6-(morpholin-4-yl)pyridin-3-yl]-2-[4-(morpholin-4-yl)-6-(trifluoromethyl)-1,3,5-triazin-2-yl]-2,3,4,9-tetrahydro-1H-pyrido[3,4-b]indole] registered an IC50 of 2.7 nM.

As for `Cc1ccc(C2c3[nH]c4ccc(Cl)cc4c3CCN2c2nccc(N(C)C)n2)c(F)c1F` (stereo not shown) [Compound 306, 2-[6-chloro-1-(2,3-difluoro-4-methylphenyl)-1,3,4,9-tetrahydro-2H-pyrido[3,4-b]indol-2-yl]-N,N-dimethylpyrimidin-4-amine], the IC50 was determined as 20 nM.

In turn, `Cc1nc(C)nc(N2CCc3c([nH]c4ccc(Cl)cc34)C2c2cnc(N3C4CCC3COC4)nc2)n1` (stereo not shown) [Compound 338, 6-chloro-2-(4,6-dimethyl-1,3,5-triazin-2-yl)-1-[2-(3-oxa-8-azabicyclo[3.2.1]octan-8-yl)pyrimidin-5-yl]-2,3,4,9-tetrahydro-1H-pyrido[3,4-b]indole] yielded an IC50 of 35 nM.

With `N#Cc1ccnc(N2CCc3c([nH]c4cc(F)c(Cl)cc34)C2c2ccc(F)cc2)n1` (stereo not shown) [Compound 25, 2-[6-chloro-7-fluoro-1-(4-fluorophenyl)-1,3,4,9-tetrahydro-2H-pyrido[3,4-b]indol-2-yl]pyrimidine-4-carbonitrile], the IC50 stood at 51.4 nM.

As for `Cc1ccc([C@H]2c3[nH]c4ccc(Cl)cc4c3CCN2c2ncnc(C(F)(F)F)n2)c(F)c1F` [Compound 461, (1S)-6-chloro-1-(2,3-difluoro-4-methylphenyl)-2-[4-(trifluoromethyl)-1,3,5-triazin-2-yl]-2,3,4,9-tetrahydro-1H-pyrido[3,4-b]indole], the IC50 turned out to be 0.8 nM.

`Fc1cnc(N2CCc3c([nH]c4cc(F)c(Cl)cc34)C2c2ccc(F)nc2)nc1` (stereo not shown) [Compound 47, 6-chloro-7-fluoro-1-(6-fluoropyridin-3-yl)-2-(5-fluoropyrimidin-2-yl)-2,3,4,9-tetrahydro-1H-pyrido[3,4-b]indole]: inhibition was half-maximal at 140 nM (IC50).

`Cc1nc(C)nc(N2CCc3c([nH]c4ccc(Cl)cc34)C2c2cnc(N3CCN(C)CC3)nc2)n1` (stereo not shown) [Compound 380, 6-chloro-2-(4,6-dimethyl-1,3,5-triazin-2-yl)-1-[2-(4-methylpiperazin-1-yl)pyrimidin-5-yl]-2,3,4,9-tetrahydro-1H-pyrido[3,4-b]indole] displayed an IC50 of 26.3 nM.

Turning to `Cc1cc(C#N)nc(N2CCc3c([nH]c4cc(F)c(Cl)cc34)C2c2ccc(C)c(F)c2F)n1` (stereo not shown) [Compound 153, 2-[6-chloro-1-(2,3-difluoro-4-methylphenyl)-7-fluoro-1,3,4,9-tetrahydro-2H-pyrido[3,4-b]indol-2-yl]-6-methylpyrimidine-4-carbonitrile], inhibition was half-maximal at 1.1 nM (IC50).

`Cc1nc(C)nc(N2CCc3c([nH]c4ccc(Cl)cc34)C2c2ccc(Br)c(F)c2F)n1` (stereo not shown) [Compound 283, 1-(4-bromo-2,3-difluorophenyl)-6-chloro-2-(4,6-dimethyl-1,3,5-triazin-2-yl)-2,3,4,9-tetrahydro-1H-pyrido[3,4-b]indole] registered an IC50 of 0.6 nM.

Take `Fc1ccc(C2c3[nH]c4ccc(Cl)c(F)c4c3CCN2c2ncc(Cl)cn2)cc1` (stereo not shown) [Compound 49, 6-chloro-2-(5-chloropyrimidin-2-yl)-5-fluoro-1-(4-fluorophenyl)-2,3,4,9-tetrahydro-1H-pyrido[3,4-b]indole]: half-maximal inhibition (IC50) was put at 21.2 nM.

The molecule `Cc1nc(N2CCc3c([nH]c4cc(F)c(Cl)cc34)C2c2ccc(F)cc2)ncc1F` (stereo not shown) [Compound 105, 6-chloro-7-fluoro-2-(5-fluoro-4-methylpyrimidin-2-yl)-1-(4-fluorophenyl)-2,3,4,9-tetrahydro-1H-pyrido[3,4-b]indole] gave an IC50 of 23.3 nM.
